In US6355799B1, “Substituted benzene compounds, process for their preparation, and herbicidal and defoliant compositions containing them” (ISK Americas Incorporated, priority 1997, dated 2002):

Assays:
Type in all cases: in vivo
[1] = system: redroot pigweed (Amaranthus retroflexus, AMARE); assay: Pre-emerge test, greenhouse herbicide activity screening; settings: pre-emerge, rated 14 days after application, 0 = no damage, 100 = complete death
In short: (§1)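 Compounds in acetone were track-sprayed at 187 l/ha, 15–1000 g ai/ha, onto sandy loam pots. Pre-emerge seeds were sown one day before spraying, with surface watering afterwards. Post-emerge plants were at the 2–3 leaf stage and sprayed with 0.25% v/v non-ionic surfactant. Injury was rated 0–100 at 14 days.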

[2] = system: upland rice (Oryza sp., var. Tebonnet, RICE); assay: Pre-emerge test, crop safety; settings: pre-emerge, rated 14 days after application, 0 = no damage, 100 = complete death
In short: (§2)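 Plants grown in 10 cm pots of sandy loam mix received acetone-dissolved compounds through a moving flat-fan nozzle. Doses ranged from 15 to 1000 g ai/ha. Pre-emerge pots were seeded one day earlier, post-emerge pots 8–21 days earlier. Fourteen days on, each pot was graded 0–100 for damage.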

[3] = system: field corn (Zea mays L., var. Dekalb 535, CORN); assay: Pre-emerge test, crop safety; settings: pre-emerge, rated 14 days after application, 0 = no damage, 100 = complete death
In short: as §2

[4] = system: sicklepod (Cassia obtusifolia, CASOB); assay: Post-emerge test, greenhouse herbicide activity screening; settings: phytotoxicity rating 0-100 (0 no damage, 100 complete death), 14 days after application
In short: as §1

[5] = system: lambsquarters (Chenopodium album, CHEAL); assay: as above; settings: phytotoxicity rating 0-100 (0 no damage, 100 complete death), 14 days after application
In short: as §1

[6] = system: large crabgrass (Digitaria sanguinalis, DIGSA); assay: as above; settings: phytotoxicity rating 0-100 (0 no damage, 100 complete death), 14 days after application
In short: as §1

[7] = system: velvetleaf (Abutilon theophrasti, ABUTH); assay: as above; settings: phytotoxicity rating 0-100 (0 no damage, 100 complete death), 14 days after application
In short: as §1

[8] = system: johnsongrass (Sorghum halepense, SORHA); assay: as above; settings: phytotoxicity rating 0-100 (0 no damage, 100 complete death), 14 days after application
In short: as §1

[9] = system: ivyleaf morningglory (Ipomoea hederacea, IPOHE); assay: as above; settings: phytotoxicity rating 0-100 (0 no damage, 100 complete death), 14 days after application
In short: as §1

[10] = system: barnyardgrass (Echinochloa crus-galli, ECHCG); assay: as above; settings: phytotoxicity rating 0-100 (0 no damage, 100 complete death), 14 days after application
In short: as §1

[11] = system: green foxtail (Setaria viridis, SETVI); assay: as above; settings: phytotoxicity rating 0-100 (0 no damage, 100 complete death), 14 days after application
In short: as §1

[12] = system: redroot pigweed (Amaranthus retroflexus, AMARE); assay: as above; settings: phytotoxicity rating 0-100 (0 no damage, 100 complete death), 14 days after application
In short: as §1

[13] = system: upland rice (Oryza sp., var. Tebonnet, RICE); assay: Post-emerge test, crop safety; settings: phytotoxicity rating 0-100 (0 no damage, 100 complete death), 14 days after application
In short: (§3)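 Fourteen days after spraying, crop and weed injury was graded visually from 0, no effect, to 100, every plant dead. Test substances were dissolved in acetone and applied at 15–1000 g ai/ha with a flat-fan nozzle. Application was either pre-emergence, one day after sowing, or post-emergence at the 2–3 leaf stage.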

[14] = system: field corn (Zea mays L., var. Dekalb 535, CORN); assay: Post-emerge test, crop safety; settings: phytotoxicity rating 0-100 (0 no damage, 100 complete death), 14 days after application
In short: as §3

[15] = system: sicklepod (Cassia obtusifolia, CASOB); assay: Pre-emerge test, greenhouse herbicide activity screening; settings: pre-emerge, rated 14 days after application, 0 = no damage, 100 = complete death
In short: as §3

[16] = system: lambsquarters (Chenopodium album, CHEAL); assay: as above; settings: pre-emerge, rated 14 days after application, 0 = no damage, 100 = complete death
In short: as §3

[17] = system: large crabgrass (Digitaria sanguinalis, DIGSA); assay: as above; settings: pre-emerge, rated 14 days after application, 0 = no damage, 100 = complete death
In short: as §3

[18] = system: velvetleaf (Abutilon theophrasti, ABUTH); assay: as above; settings: pre-emerge, rated 14 days after application, 0 = no damage, 100 = complete death
In short: as §3

[19] = system: johnsongrass (Sorghum halepense, SORHA); assay: as above; settings: pre-emerge, rated 14 days after application, 0 = no damage, 100 = complete death
In short: as §3

[20] = system: ivyleaf morningglory (Ipomoea hederacea, IPOHE); assay: as above; settings: pre-emerge, rated 14 days after application, 0 = no damage, 100 = complete death
In short: as §3

[21] = system: barnyardgrass (Echinochloa crus-galli, ECHCG); assay: as above; settings: pre-emerge, rated 14 days after application, 0 = no damage, 100 = complete death
In short: as §3

[22] = system: green foxtail (Setaria viridis, SETVI); assay: as above; settings: pre-emerge, rated 14 days after application, 0 = no damage, 100 = complete death
In short: as §3

In the case of `Cn1c(C(F)(F)F)cc(=O)n(-c2c(F)cc(Cl)c(OCC#N)c2N)c1=O` [Compound 1-18], the “Pre-emerge Herbicidal Activity AMARE (phytotoxicity rating, scale 0-100)” value ([1]; 63 g ai/ha) was 100, the “Pre-emerge Herbicidal Activity AMARE (phytotoxicity rating, scale 0-100)” value ([1]; 250 g ai/ha) was 100 and the “Pre-emerge crop damage RICE (phytotoxicity rating, scale 0-100)” value ([2]; 63 g ai/ha) was 30. For the same compound, the “Pre-emerge crop damage RICE (phytotoxicity rating, scale 0-100)” value ([2]; 250 g ai/ha) was 70, the “Pre-emerge crop damage CORN (phytotoxicity rating, scale 0-100)” value ([3]; 63 g ai/ha) was 40 and the “Pre-emerge crop damage CORN (phytotoxicity rating, scale 0-100)” value ([3]; 250 g ai/ha) was 90. The “Post-emerge Herbicidal Activity CASOB” value ([4]; 63 g ai/ha) was 30, the “Post-emerge Herbicidal Activity CASOB” value ([4]; 250 g ai/ha) was 95 and the “Post-emerge Herbicidal Activity CHEAL” value ([5]; 63 g ai/ha) was 70. The “Post-emerge Herbicidal Activity CHEAL” value ([5]; 250 g ai/ha) was 100, the “Post-emerge Herbicidal Activity DIGSA” value ([6]; 63 g ai/ha) was 50 and the “Post-emerge Herbicidal Activity DIGSA” value ([6]; 250 g ai/ha) was 50. For the same compound, the “Post-emerge Herbicidal Activity ABUTH” value ([7]; 63 g ai/ha) was 100, the “Post-emerge Herbicidal Activity ABUTH” value ([7]; 250 g ai/ha) was 100 and the “Post-emerge Herbicidal Activity SORHA” value ([8]; 63 g ai/ha) was 50. The “Post-emerge Herbicidal Activity SORHA” value ([8]; 250 g ai/ha) was 50, the “Post-emerge Herbicidal Activity IPOHE” value ([9]; 63 g ai/ha) was 80 and the “Post-emerge Herbicidal Activity IPOHE” value ([9]; 250 g ai/ha) was 100. For the same compound, the “Post-emerge Herbicidal Activity ECHCG” value ([10]; 63 g ai/ha) was 0, the “Post-emerge Herbicidal Activity ECHCG” value ([10]; 250 g ai/ha) was 0 and the “Post-emerge Herbicidal Activity SETVI” value ([11]; 63 g ai/ha) was 70. For the same compound, the “Post-emerge Herbicidal Activity SETVI” value ([11]; 250 g ai/ha) was 70, the “Post-emerge Herbicidal Activity AMARE” value ([12]; 63 g ai/ha) was 70 and the “Post-emerge Herbicidal Activity AMARE” value ([12]; 250 g ai/ha) was 100. The “Post-emerge Herbicidal Activity RICE (crop damage)” value ([13]; 63 g ai/ha) was 0, the “Post-emerge Herbicidal Activity RICE (crop damage)” value ([13]; 250 g ai/ha) was 0 and the “Post-emerge Herbicidal Activity CORN (crop damage)” value ([14]; 63 g ai/ha) was 0. The “Post-emerge Herbicidal Activity CORN (crop damage)” value ([14]; 250 g ai/ha) was 0, the “Pre-emerge Herbicidal Activity CASOB (phytotoxicity rating, scale 0-100)” value ([15]; 63 g ai/ha) was 70 and the “Pre-emerge Herbicidal Activity CASOB (phytotoxicity rating, scale 0-100)” value ([15]; 250 g ai/ha) was 100. For the same compound, the “Pre-emerge Herbicidal Activity CHEAL (phytotoxicity rating, scale 0-100)” value ([16]; 63 g ai/ha) was 100, the “Pre-emerge Herbicidal Activity CHEAL (phytotoxicity rating, scale 0-100)” value ([16]; 250 g ai/ha) was 100 and the “Pre-emerge Herbicidal Activity DIGSA (phytotoxicity rating, scale 0-100)” value ([17]; 63 g ai/ha) was 70. The “Pre-emerge Herbicidal Activity DIGSA (phytotoxicity rating, scale 0-100)” value ([17]; 250 g ai/ha) was 90, the “Pre-emerge Herbicidal Activity ABUTH (phytotoxicity rating, scale 0-100)” value ([18]; 63 g ai/ha) was 100 and the “Pre-emerge Herbicidal Activity ABUTH (phytotoxicity rating, scale 0-100)” value ([18]; 250 g ai/ha) was 100. For the same compound, the “Pre-emerge Herbicidal Activity SORHA (phytotoxicity rating, scale 0-100)” value ([19]; 63 g ai/ha) was 70, the “Pre-emerge Herbicidal Activity SORHA (phytotoxicity rating, scale 0-100)” value ([19]; 250 g ai/ha) was 100 and the “Pre-emerge Herbicidal Activity IPOHE (phytotoxicity rating, scale 0-100)” value ([20]; 63 g ai/ha) was 100. For the same compound, the “Pre-emerge Herbicidal Activity IPOHE (phytotoxicity rating, scale 0-100)” value ([20]; 250 g ai/ha) was 100, the “Pre-emerge Herbicidal Activity ECHCG (phytotoxicity rating, scale 0-100)” value ([21]; 63 g ai/ha) was 0 and the “Pre-emerge Herbicidal Activity ECHCG (phytotoxicity rating, scale 0-100)” value ([21]; 250 g ai/ha) was 80. For the same compound, the “Pre-emerge Herbicidal Activity SETVI (phytotoxicity rating, scale 0-100)” value ([22]; 63 g ai/ha) was 95 and the “Pre-emerge Herbicidal Activity SETVI (phytotoxicity rating, scale 0-100)” value ([22]; 250 g ai/ha) was 99.
